≈ marks a conversion by molar mass, not a printed value.
Columns and labels:
S. aureus 340 = test: MIC, broth microdilution; assay type: cell-based, Staphylococcus aureus; settings: for MIC: Staphylococcus aureus, 340, 24 h; for MIC S. aureus 340: 24 h
Method: (§1) Antimicrobial activity of the compounds was studied by determination of minimal inhibitory concentrations (MIC) according to the NCCLS guidelines M7-A2 using the microbroth dilution methods. The bacteria strains were grown on trypticase soy agar (Becton Dickinson) at 37 °C for 24 h. Inocula were prepared in TCE (tryptone 0.1%, […], wt/vol) by ajusting the turbidity at 623 nm to obtain 1–3 10^5 CFU/mL.
(§2) Antimicrobial activities of the compounds were determined by using a broth microdilution method performed in sterile 96-well microplates. All compounds were solubilized in water at a concentration of 10 mM and were transferred to each microplate well in order to obtain a two-fold serial dilution in 100 µL of broth and 100 µL of inoculum containing 2–6 10^5 CFU of each bacterium were added to each well. Some wells were reserved for positive controls and inoculum viability.

P. aeruginosa 1051575 = test: MIC, broth microdilution; assay type: cell-based, Pseudomonas aeruginosa; settings: for MIC: Pseudomonas aeruginosa, 1051575, 24 h; for MIC / MIC P. aeruginosa 1051575: 24 h
Method: as §1, §2

[1] = test system: Chinese hamster Ovary cells (CHO-K1); test: Cytotoxicity assay (WST-1 / Neutral Red); assay type: cell-based; settings: 24-h incubation; for IC50: Cricetulus griseus, 24 h
Method: The cytotoxic activities of compounds were assessed on Chinese hamster Ovary cells (CHO-K1) provided from ATCC-LGC Standards Sarl (Molsheim, France). Cells were maintained in Mc Coy’s 5A (CHO) medium supplemented with 10% bovine calf serum, 2 mM glutamine, and 100 U mL^−1/10 µg mL^−1 penicillin/streptomycin mixtures. For the cytotoxicity experiments, they were seeded in 96-well plates and incubated at 37 °C in humidified atmosphere containing 5% CO2 overnight, then concentrations of compounds were incorporated in triplicate cultures. After a 24-h incubation period at 37 °C, cells were submitted to three successive washes in phosphate buffer saline (PBS) and cell viability was evaluated by two different vital dyes: • i. A first set of cell cultures was incubated in PBS containing 10% WST-1 for 30 min at 37 °C, 5% CO2. Cell viability was evaluated by the assessment of WST-1 absorbance at 450 nm in a microplate spectrophotometer. • ii. A second set of cell cultures was placed into Neutral Red medium (50 μg mL^−1 Neutral Red in complete medium) and incubated for 3 h at 37 °C, 5% CO2. Then the Neutral Red medium was removed and the distaining solution (50% ethanol, 1% acetic acid, 49% distilled water; 50 µL per well) was added into the wells. The plates were shaken for 15–20 min at room temperature in the dark. Cell viability was evaluated by the assessment of absorbance at 540 nm in a microplate spectrophotometer.
Results were expressed as percentages of cell viability about the control (culture medium-only), which corresponded to 100% cell viability. Dose-response curves were calculated by non-linear regression analysis with TableCurve 2D software (V 5.0.1) (Systat Software Inc., San Jose, CA, USA). The Inhibitory Concentration 50% (IC50) was defined as the concentration of compounds that induced a 50% decrease of viable cells.

S. aureus ATCC 25923 = test: MIC, broth microdilution; assay type: cell-based, Staphylococcus aureus; settings: ATCC strain; for MIC: Staphylococcus aureus, ATCC25923, 24 h
Method: as §1, §2

E. faecalis ATCC29212 = test: MIC, broth microdilution; assay type: cell-based, Enterococccus faecalis; settings: ATCC strain; for MIC: Enterococcus faecalis, ATCC29212, 24 h, read-out: MIC E. faecalis 29212; for MIC E. faecalis 29212: 24 h
Method: as §1, §2

S. intermedius 1051997 = test: MIC, broth microdilution; assay type: cell-based, Staphylococcus intermedius; settings: for MIC: Staphylococcus intermedius, 1051997, 24 h; for Therapeutic Ratio (TR): IC50 (CHO)/MIC, S. intermedius
Method: as §1, §2

P. aeruginosa ATCC 27853 = test: MIC, broth microdilution; assay type: cell-based, Pseudomonas aeruginosa; settings: ATCC strain; for MIC: Pseudomonas aeruginosa, ATCC27853, 24 h; for MIC P. aeruginosa 27853: 24 h
Method: as §1, §2

E. coli 1956 = test: MIC, broth microdilution; assay type: cell-based, Escherichia coli; settings: for MIC: Escherichia coli, 1956, 24 h; for MIC E. coli 1956: 24 h
Method: as §1, §2

E. coli ATCC 25922 = test: MIC, broth microdilution; assay type: cell-based, Escherichia coli; settings: ATCC strain; for MIC: Escherichia coli, ATCC25922, 24 h; for MIC E. coli 25922: 24 h
Method: as §1, §2

| Molecule | MIC (S. aureus 340) | MIC (P. aeruginosa 1051575) | IC50 [1] | MIC (S. aureus ATCC 25923) | MIC (E. faecalis ATCC29212) | MIC (S. intermedius 1051997; 24 h) | MIC (P. aeruginosa ATCC 27853) | MIC (E. coli 1956) | MIC (E. coli ATCC 25922) | MIC P. aeruginosa 1051575 (P. aeruginosa 1051575) | also measured |
| --- | --- | --- | --- | --- | --- | --- | --- | --- | --- | --- | --- |
| CC(C)OC(=O)CCC(C)C1CCC2C3C(O)CC4CC(NCCN(CCN)CCN)CCC4(C)C3CC(O)C12C (centres unmarked) [Claramine B19] | 14 µg/mL (≈ 24.2 µM) | 58 µg/mL (≈ 100 µM) | 81 µg/mL (≈ 140 µM) |  |  |  |  |  |  |  |  |
| COC(=O)CCC(C)C1CCC2C3C(O)CC4CC(NCCCNCCCCNCCCN)CCC4(C)C3CCC12C (centres unmarked) [Claramine C01] | 4 µg/mL (≈ 6.77 µM) | 7 µg/mL (≈ 11.8 µM) | 24 µg/mL (≈ 40.6 µM) | 4 µg/mL (≈ 6.77 µM) | 15 µg/mL (≈ 25.4 µM) | 2 µg/mL (≈ 3.38 µM) | 30 µg/mL (≈ 50.8 µM) | 60 µg/mL (≈ 102 µM) | 30 µg/mL (≈ 50.8 µM) |  |  |
| COC(=O)CCC(C)C1CCC2C3C(O)CC4CC(NCCCNCCCNCCCN)CCC4(C)C3CCC12C (centres unmarked) [Claramine C02] | 4 µg/mL (≈ 6.93 µM) | 7 µg/mL (≈ 12.1 µM) | 22 µg/mL (≈ 38.1 µM) | 4 µg/mL (≈ 6.93 µM) | 15 µg/mL (≈ 26 µM) | 2 µg/mL (≈ 3.47 µM) | 29 µg/mL (≈ 50.3 µM) |  |  |  | MIC E. coli 25922 (E. coli ATCC 25922): 15 µg/mL (≈ 26 µM) |
| COC(=O)CCC(C)C1CCC2C3C(O)CC4CC(NCCCNCCCN)CCC4(C)C3CCC12C (centres unmarked) [Claramine C04] | 7 µg/mL (≈ 13.5 µM) | 26 µg/mL (≈ 50 µM) | 68 µg/mL (≈ 131 µM) |  |  |  |  |  |  |  |  |
| CC(C)OC(=O)CCC(C)C1CCC2C3C(O)CC4CC(NCCCNCCCNCCCN)CCC4(C)C3CCC12C (centres unmarked) [Claramine C17] | 2 µg/mL (≈ 3.31 µM) |  | > 60 µg/mL | 4 µg/mL (≈ 6.61 µM) | 8 µg/mL (≈ 13.2 µM) | 0.8 µg/mL (≈ 1.32 µM) | 16 µg/mL (≈ 26.4 µM) | 10 µg/mL (≈ 16.5 µM) | 16 µg/mL (≈ 26.4 µM) |  | Therapeutic Ratio (TR) (S. intermedius 1051997): 65–114; Therapeutic Ratio (TR) (P. aeruginosa 1051575; IC50 (CHO)/MIC, P. aeruginosa): > 10; IC50 CHO [1]: 85 µg/mL (≈ 141 µM) |
| CC(C)OC(=O)CCC(C)C1CCC2C3C(O)CC4CC(NCCCNCCCCN)CCC4(C)C3CCC12C (centres unmarked) [Claramine C18] | 7 µg/mL (≈ 12.5 µM) |  | 95 µg/mL (≈ 169 µM) | 7 µg/mL (≈ 12.5 µM) |  | 4 µg/mL (≈ 7.12 µM) |  | 14 µg/mL (≈ 24.9 µM) |  | 14 µg/mL (≈ 24.9 µM) | MIC E. faecalis 29212 (E. faecalis ATCC29212): 7 µg/mL (≈ 12.5 µM); MIC P. aeruginosa 27853 (P. aeruginosa ATCC 27853): 14 µg/mL (≈ 24.9 µM); MIC E. coli 25922 (E. coli ATCC 25922): 14 µg/mL (≈ 24.9 µM) |
| CC(C)OC(=O)CCC(C)C1CCC2C3C(O)CC4CC(NCCCNCCCN)CCC4(C)C3CCC12C (centres unmarked) [Claramine C19] |  |  |  | 7 µg/mL (≈ 12.8 µM) | 4 µg/mL (≈ 7.3 µM) | 2 µg/mL (≈ 3.65 µM) | 28 µg/mL (≈ 51.1 µM) | 14 µg/mL (≈ 25.6 µM) | 14 µg/mL (≈ 25.6 µM) | 14 µg/mL (≈ 25.6 µM) | MIC S. aureus 340 (S. aureus 340): 2 µg/mL (≈ 3.65 µM); Therapeutic Ratio (TR) (S. intermedius 1051997): 65–114 |
| CCOC(=O)CCC(C)C1CCC2C3C(O)CC4CC(NCCCNCCCCNCCCN)CCC4(C)C3CCC12C (centres unmarked) [Claramine C21] | 4 µg/mL (≈ 6.61 µM) | 15 µg/mL (≈ 24.8 µM) | 45 µg/mL (≈ 74.4 µM) | 4 µg/mL (≈ 6.61 µM) | 2 µg/mL (≈ 3.31 µM) | 4 µg/mL (≈ 6.61 µM) | 15 µg/mL (≈ 24.8 µM) | 30 µg/mL (≈ 49.6 µM) | 15 µg/mL (≈ 24.8 µM) |  |  |
| CC(C)OC(=O)CCC(C)C1CCC2C3C(O)CC4CC(NCCCN5CCN(CCCN)CC5)CCC4(C)C3CCC12C (centres unmarked) [Claramine C24] |  |  |  | 8 µg/mL (≈ 13 µM) | 15 µg/mL (≈ 24.3 µM) | 4 µg/mL (≈ 6.48 µM) | 30 µg/mL (≈ 48.6 µM) | 30 µg/mL (≈ 48.6 µM) | 15 µg/mL (≈ 24.3 µM) | 30 µg/mL (≈ 48.6 µM) | MIC S. aureus 340 (S. aureus 340): 8 µg/mL (≈ 13 µM) |
| CC(C)OC(=O)CCC(C)C1CCC2C3C(O)CC4CC(NCCN(CCN)CCN)CCC4(C)C3CCC12C (centres unmarked) [Claramine C25] | 14 µg/mL (≈ 24.9 µM) | 28 µg/mL (≈ 49.7 µM) | 141 µg/mL (≈ 250 µM) |  |  |  |  |  |  |  |  |
| CC(C)OC(=O)CCC(C)C1CCC2C3C(O)CC4CC(NCCCNCCCCN)CCC4(C)C3CCC12C (centres unmarked) [Claramine C27] |  |  |  |  |  |  |  |  |  | 56 µg/mL (≈ 99.7 µM) | MIC S. aureus 340 (S. aureus 340): 7 µg/mL (≈ 12.5 µM); MIC S. aureus 25923 (S. aureus ATCC 25923; 24 h): 7 µg/mL (≈ 12.5 µM); MIC E. faecalis 29212 (E. faecalis ATCC29212): 28 µg/mL (≈ 49.8 µM); MIC S. intermedius 1051997 (S. intermedius 1051997; 24 h): 7 µg/mL (≈ 12.5 µM); MIC P. aeruginosa 27853 (P. aeruginosa ATCC 27853): 56 µg/mL (≈ 99.7 µM); MIC E. coli 1956 (E. coli 1956): 28 µg/mL (≈ 49.8 µM); MIC E. coli 25922 (E. coli ATCC 25922): 56 µg/mL (≈ 99.7 µM); IC50 CHO [1]: 100 µg/mL (≈ 178 µM) |
| CC(C)OC(=O)CCC(C)C1CCC2C3CCC4CC(NCCCNCCCN)CCC4(C)C3CCC12C (centres unmarked) [Claramine E04] | 3 µg/mL (≈ 5.64 µM) | 3 µg/mL (≈ 5.64 µM) | 13 µg/mL (≈ 24.4 µM) |  |  |  |  |  |  |  |  |
| CC[C@H]1OC(=O)[C@H](C)[C@@H](O[C@H]2C[C@@](C)(OC)[C@@H](O)[C@H](C)O2)[C@H](C)[C@@H](O[C@@H]2O[C@H](C)C[C@H](N(C)C)[C@H]2O)[C@](C)(O)C[C@@H](C)C(=O)[C@H](C)[C@@H](O)[C@]1(C)O [Ery, Erythromycine, reference compound] | 1 µg/mL (≈ 1.36 µM) |  |  | 1 µg/mL (≈ 1.36 µM) | 1 µg/mL (≈ 1.36 µM) | 1 µg/mL (≈ 1.36 µM) |  |  |  |  |  |
| Colistine [reference compound] |  |  |  |  |  |  |  |  |  | 0.5 µg/mL | MIC P. aeruginosa 27853 (P. aeruginosa ATCC 27853): 0.5 µg/mL; MIC E. coli 1956 (E. coli 1956): 0.5 µg/mL; MIC E. coli 25922 (E. coli ATCC 25922): 0.5 µg/mL |

— article PMC12693182, “Synthesis and QSAR Studies of Claramine Derivatives, a New Class of Broad-Spectrum Antimicrobial Agents” (Molecules, 2025)
